In article PMC7520961, “Safety evaluation of the interchangeable use of robenacoxib in commercially-available tablets and solution for injection in cats” (BMC Veterinary Research, 2020):

Legend:
[1] = system: cats; settings: in vivo
Experimental: Cageside observations were performed twice daily on all animals for morbidity, mortality, injury, and the availability of food and water. Detailed clinical observations were performed by trained technical staff twice per day beginning on Day − 2. Observations were at least six hours apart with the first occurring 1–2 hours after dose administration. Observations included, but were not limited to eyes, mucus membranes, respiratory system, circulatory system, autonomic and central nervous systems, somatomotor activity and behavior pattern. Body weight was measured on Day − 19 and weekly beginning Day − 14. Individual food consumption was measured daily beginning on Day − 7. Injection sites were evaluated for erythema, edema, heat, and pain response (i.e., vocalization upon palpation using a 3-point Likert scale) on each day of subcutaneous dosing prior to and 7 to 8 hours after dosing and once daily for three days following each dose administration. If any injection site was abnormal at the end of the observation period, additional assessments were carried out until the cat returned to normal or until end of the study.

[2] = system: cats; assay: Buccal mucosal bleeding time (BMBT); assay type: in vivo; settings: one 2X cat
Experimental: Buccal mucosal bleeding times (BMBT) were measured on all animals on Days − 5 and 36 following ECG examinations while the animals were sedated. The upper lip was everted and a Surgicutt incision device was used to create a small incision (approximately 1 mm in depth and 3.5 mm in length). Blood flow from the incision site was blotted using filter paper below the incision. The elapsed time from the triggering of the device until blood no longer appeared on the filter paper was recorded as the bleed time. Clinical pathology evaluations were conducted on all animals on Days − 13 and − 6 and prior to dosing on Days 13 and 37. Because reference values given by the laboratory were (slightly) different for males and females, they were combined (i.e. lower of the two lower bounds to higher of the two upper bounds) for the tables. […] Hematology variables were determined using an Advia 120 or Advia 2120 (Siemens, Munich, Germany), light microscope, or sediplast column (Polymedco, NY, US). Coagulation variables were determined using a Stago Compact (Diagnostica Stago, Parsippany, NJ, US), clinical chemistry variables were determined using an Olympus AU2700 or AU640e (Olympus Diagnostics, Southall, UK), and urinalysis variables were determined using a Clinitek-500 or Atlas (Siemens, Munich, Germany), Reichert VET 360 (Reichert Technologies, Buffalo, New York, USA), or light microscope.

[3] = Dissolution of robenacoxib tablets with or without gelatin capsule; assay type: physicochemical; settings: by 40 minutes; tablets whether or not encapsulated in gelatin capsules; data not shown
[4] = system: cats; settings: in vivo; remark: listed apart in the source
[5] = system: cats; settings: in vivo; remark: listed apart in the source
Experimental: Necropsies were performed in cage order. All animals were euthanized on Day 38 by intramuscular sedation with ketamine followed approximately 30 min later in a different room by an intravenous overdose of sodium pentobarbital solution and exsanguination, under procedures approved by a veterinary pathologist and according to the study site’s standard operating procedures. After a complete post-mortem evaluation, tissue samples were collected for histopathological analysis. Additionally, the following organs were weighed before tissues were collected: adrenal gland, aorta, brain, epididymis, heart, kidney, liver, lung with bronchi, ovary, pituitary, prostate, salivary gland (mandibular), spleen, testis, thymus, thyroid gland (with parathyroid), and uterus with cervix. In order to correct for body weight and size, the ratio of organ weight to body weight and brain weight was calculated for each animal. Tissues, including any gross lesions identified during the necropsy, were fixed in neutral buffered formalin, except the eye including optic nerve and testes were fixed using a modified Davidson’s fixative [36]. Tissue sections were stained with hematoxylin and eosin and evaluated by a board-certified veterinary pathologist. A bone marrow smear was collected from a rib at necropsy and analyzed qualitatively by a board-certified veterinary clinical pathologist.

[6] = system: anesthetized cats; design: method as in ref 24 = [24]; 24. Panteri A Deurinck M Seewald W Gerber S King JN Desevaux C Safety of intravenous Robenacoxib (Onsior) in cats J Vet Pharmacol Ther 2015 38 S1 149; settings: single dose SC 2 mg/kg or 2 or 4 mg/kg IV, 5 or 60 min post administration; cited from earlier work
[7] = system: cats; design: method as in ref 12 = [12]; 12. US Food and Drug Administration Freedom of Information Summary: Original New Animal Drug Application NADA 141–320 (Onsior Robenacoxib Tablets for Cats) 2011.; settings: six-month target animal safety study, oral robenacoxib at 1, 3 and 5X; cited from earlier work
[8] = system: healthy adult domestic short-hair cats; design: method as in ref 13 = [13]; 13. US Food and Drug Administration Freedom of Information Summary: Original New Animal Drug Application NADA 141–443 (Onsior Robenacoxib Injection Cats) 2015.; settings: 10 mg/kg robenacoxib solution for injection for three consecutive days; cited from earlier work

CCc1ccc(Nc2c(F)c(F)cc(F)c2F)c(CC(=O)O)c1 [robenacoxib]
Emesis [1]: observed once on Days 36 and 37 | duration of injection site edema post injection [1]: up to 120 hours | injection site erythema, heat or pain [1]: no signs | time to resolution of injection site changes [1]: ≤ 72 h | occurrence of injection site edema vs control animals ([1]; sc): significantly higher | increase in BMBT value compared to pre-treatment value [2]: approximately seven-fold | robenacoxib dissolved [3]: approximately 93% | QT duration vs control (RR interval as covariate) [4]: No prolongation | QT interval, average post-treatment [4]: approximately 160 ms | QT interval, average pretest values [4]: approximately 140 ms | mean baseline heart rate [4]: approximately 305 bpm | mean heart rate post treatment [4]: 260-277 bpm | qualitative assessment of electrocardiograms [4]: qualitatively normal | Robenacoxib-related microscopic findings [5]: increased injection site subacute/chronic inflammation | absolute liver weight increase compared to control [5]: 14% | severity of injection site inflammation observations [5]: minimal | electrocardiographic changes (including QT interval) [6]: no electrocardiographic changes | QT interval effect [7]: dose-dependent QT prolongation | arrhythmias [7]: no arrhythmias were documented | injection site observations [8]: transient, fluid-filled, painless enlargements at the injection sites that disappeared over a period of 72 hours | microscopic findings at injection sites [8]: minimal subcutaneous inflammatory cell infiltration
